Results as given in patent US20260176260A1, “DUAL RAF AND TUBULIN INHIBITORS AND METHODS OF USE THEREOF” (Deciphera Pharmaceuticals, LLC, priority 2023, published 2026).
Where two headings read alike, the source gives them in different places.

What was measured:
HCT-116 cells = assay: HCT-116 cell proliferation assay (resazurin); format: cell-based; settings: read-out: HCT-116
Outline: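 HCT-116 cells, 375 per well in McCoy's 5A with 10% FBS, exposed to serially diluted compound in triplicate for 67-72 h at 37 °C. Resazurin added for 4-5 h more; fluorescence (ex 540/em 600 nm) fitted to IC50.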

HPAF-II cells = assay: HPAF-II cell proliferation assay (resazurin); format: cell-based; settings: read-out: HPAF-II
Outline: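 Serial compound dilutions in triplicate with 750 cells/well in complete MEM with 10% FBS, 115 to 120 h at 37° C, 5% CO2. Resazurin then added for 18 to 24 h; fluorescence at ex 540/em 600 nm used to derive IC50.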

[1] = Homo sapiens, Table 2, inhibition of cell proliferation

Compound	IC50 (HCT-116 cells; [1])	IC50 (HCT-116 cells; Table 3)	IC50 (HPAF-II cells; [1])	IC50 (HPAF-II cells; Table 3)
CNC(=O)c1cc(-c2cc(-c3cc(NC(=O)c4cc(C(F)(F)F)cnn4)ccc3C)cc(NCCO)n2)ccn1 [Example 18]	< 100 nM	< 100 nM	100 to 500 nM	100 to 500 nM
CNC(=O)c1cc(-c2cc(-c3cc(NC(=O)c4cc(C(F)(F)F)cnn4)ccc3C)ccn2)ccn1 [Example 9]	100 to 500 nM	100 to 500 nM	100 to 500 nM	100 to 500 nM
CNC(=O)c1cc(-c2cc(-c3cc(NC(=O)c4cc(C(F)(F)F)cnn4)ccc3C)cc(C)n2)ccn1 [Example 2, N,6-dimethyl-4-(2-methyl-5-(5-(trifluoromethyl)pyridazine-3-carboxamido)phenyl)-[2,4′-bipyridine]-2′-carboxamide]	500 to 1000 nM	500 to 1000 nM	500 to 1000 nM	500 to 1000 nM
CNC(=O)c1cc(-c2cc(-c3cc(NC(=O)c4cc(C5CC5)cnn4)ccc3C)cc(NCCO)n2)ccn1 [Example 27]	< 100 nM	< 100 nM	100 to 500 nM	100 to 500 nM
CNC(=O)c1cc(-c2cc(-c3cc(NC(=O)c4cc(C5CC5)cnn4)ccc3C)ccn2)ccn1 [Example 26]	100 to 500 nM	100 to 500 nM	100 to 500 nM	100 to 500 nM
